Source: ChEMBL document CHEMBL1201862, “PubChem BioAssay data set” (2004)
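Values below derive from 48-hour exposures of cells grown in 96-well plates, with endpoints linearly interpolated between the two concentrations bracketing the appropriate inhibition level. Here, GI50 denotes the concentration required for 50% inhibition of growth.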 Active and inactive are the calls of the source. Rule as the data show it: active = GI50 up to about 1.1 µM and inactive = higher.

Experiments:
Experiment in all cases: NCI anticancer screen, dose series, 48 h
A498 = tested on: A498
SF-268 = tested on: SF-268
MDA-MB-435 = tested on: MDA-MB-435
NCI-H460 = tested on: NCI-H460
SF-539 = tested on: SF-539
KM12 = tested on: KM12
786-0 = tested on: 786-0
SNB-19 = tested on: SNB-19
SF-295 = tested on: SF-295
TK-10 = tested on: TK-10
MDA-N = tested on: MDA-N
SK-MEL-2 = tested on: SK-MEL-2
CCRF-CEM = tested on: CCRF-CEM
UO-31 = tested on: UO-31
CAKI-1 = tested on: CAKI-1
U-251 = tested on: U-251
UACC-62 = tested on: UACC-62
HT-29 = tested on: HT-29
OVCAR-8 = tested on: OVCAR-8
MCF7 = tested on: MCF7
MDA-MB-231 = tested on: MDA-MB-231
NCI-H23 = tested on: NCI-H23
Hs-578T = tested on: Hs-578T
MOLT-4 = tested on: MOLT-4
SR = tested on: SR
ACHN = tested on: ACHN
NCI-H522 = tested on: NCI-H522
RPMI-8226 = tested on: RPMI-8226
HCT-116 = tested on: HCT-116
SK-MEL-28 = tested on: SK-MEL-28
Malme-3M = tested on: Malme-3M
LOX IMVI = tested on: LOX IMVI
SK-MEL-5 = tested on: SK-MEL-5
UACC-257 = tested on: UACC-257
RXF 393 = tested on: RXF 393
DU-145 = tested on: DU-145
SW-620 = tested on: SW-620
HCT-15 = tested on: HCT-15
PC-3 = tested on: PC-3
NCI/ADR-RES = tested on: NCI/ADR-RES
OVCAR-5 = tested on: OVCAR-5
IGROV-1 = tested on: IGROV-1
HOP-62 = tested on: HOP-62
EKVX = tested on: EKVX
OVCAR-3 = tested on: OVCAR-3
OVCAR-4 = tested on: OVCAR-4
SNB-75 = tested on: SNB-75
COLO 205 = tested on: COLO 205
BT-549 = tested on: BT-549
SN12C = tested on: SN12C
K562 = tested on: K562
HCC 2998 = tested on: HCC 2998
M14 = tested on: M14
NCI-H226 = tested on: NCI-H226
A549 = tested on: A549
HL-60 = tested on: HL-60
SK-OV-3 = tested on: SK-OV-3
T47D = tested on: T47D
HOP-92 = tested on: HOP-92

CCOC(=O)C1=CN(Cc2ccccc2)C2ON=C(c3ccc(Cl)cc3)C2C1 (centres undefined)
GI50 (A498): > 42.6 µM (inactive) | GI50 (SF-268): > 42.1 µM (inactive) | GI50 (MDA-MB-435): 29 µM (inactive) | GI50 (NCI-H460): 40.5 µM (inactive) | GI50 (SF-539): > 55 µM (inactive) | GI50 (KM12): 48.2 µM (inactive) | GI50 (786-0): 54.7 µM (inactive) | GI50 (SNB-19): > 100 µM (inactive) | GI50 (SF-295): 45.6 µM (inactive) | GI50 (TK-10): > 60.5 µM (inactive) | GI50 (MDA-N): 17.9 µM (inactive) | GI50 (SK-MEL-2): 15.2 µM (inactive) | GI50 (CCRF-CEM): 9.1 µM (inactive) | GI50 (UO-31): 26.9 µM (inactive) | GI50 (CAKI-1): > 52.6 µM (inactive) | GI50 (U-251): 13.5 µM (inactive) | GI50 (UACC-62): 17.1 µM (inactive) | GI50 (HT-29): 48.6 µM (inactive) | GI50 (OVCAR-8): > 54 µM (inactive) | GI50 (MCF7): 23.6 µM (inactive) | GI50 (MDA-MB-231): 10.6 µM (inactive) | GI50 (NCI-H23): 35 µM (inactive) | GI50 (Hs-578T): 11.6 µM (inactive) | GI50 (MOLT-4): 5.4 µM (inactive) | GI50 (SR): > 23.9 µM (inactive) | GI50 (ACHN): 31 µM (inactive) | GI50 (NCI-H522): 10.4 µM (inactive) | GI50 (RPMI-8226): 22 µM (inactive) | GI50 (HCT-116): 19.9 µM (inactive) | GI50 (SK-MEL-28): > 56.2 µM (inactive) | GI50 (Malme-3M): > 55 µM (inactive) | GI50 (LOX IMVI): > 57.5 µM (inactive) | GI50 (SK-MEL-5): 16.5 µM (inactive) | GI50 (UACC-257): 33.3 µM (inactive) | GI50 (RXF 393): 38.6 µM (inactive) | GI50 (DU-145): > 55 µM (inactive) | GI50 (SW-620): > 52.5 µM (inactive) | GI50 (HCT-15): > 32.4 µM | GI50 (PC-3): > 36.6 µM (inactive) | GI50 (NCI/ADR-RES): > 54.6 µM (inactive) | GI50 (OVCAR-5): 34.4 µM (inactive) | GI50 (IGROV-1): 29.5 µM (inactive) | GI50 (HOP-62): > 55.5 µM (inactive) | GI50 (EKVX): 20.6 µM (inactive) | GI50 (OVCAR-3): 39.3 µM (inactive) | GI50 (OVCAR-4): 42 µM (inactive) | GI50 (SNB-75): 44.3 µM (inactive) | GI50 (COLO 205): > 51.3 µM (inactive) | GI50 (BT-549): 32.4 µM (inactive) | GI50 (SN12C): > 52 µM (inactive) | GI50 (K562): 5 µM (inactive) | GI50 (HCC 2998): > 100 µM (inactive) | GI50 (M14): > 54.7 µM (inactive) | GI50 (NCI-H226): > 56.2 µM (inactive) | GI50 (A549): 17.6 µM (inactive) | GI50 (HL-60): 23.4 µM (inactive) | GI50 (SK-OV-3): > 63.7 µM (inactive) | GI50 (T47D): 5.61 µM (inactive) | GI50 (HOP-92): 18.8 µM (inactive)
